Assay results as given in patent US8748618B2, “Inhibitors of inv(16) leukemia” (University of Virginia Patent Foundation, priority 2009, dated 2014).

Assays:
[1] = target: CBFβ-SMMHC:RD (CBFβ-SMMHC binding to the Runt domain); assay: FRET assay, inhibition of CBFβ-SMMHC binding to the Runt domain; settings: for IC50 FRET (CBFβ-SMMHC:RD, 20 nM both): 20 nM both proteins
Procedure: FRET assay. […] We fused the green fluorescent protein derivative Cerulean to the N-terminus of the Runt domain and the green fluorescent protein derivative Venus to the N-terminus of CBFβ-SMMHC (as well as to CBFβ (Gorczynski, Grembecka et al. 2007)). The ratio of the emission intensities at 525 nm and 474 nm, measured after excitation at 433 nm, was used as the readout in this assay. The dynamic range for the FRET assay was determined by adding a 30-fold excess of untagged CBFβ-SMMHC (or CBFβ in the case of CBFβ—Runt domain binding) to the assay and the associated change in the FRET ratio was defined as 100% inhibition.
As shown by Shoichet and co-workers (Seidler, McGovern et al. 2003), a primary source of false positives in any screen is micelle formation. […] A substantial loss of activity in the presence of detergent is a hallmark of inhibition by micelle formation and such compounds are thus identified as false positives. In addition, we are also incubating compound with protein and checking by mass spectroscopy to ensure that positive hits are not acting by covalent addition to either of the proteins.

[2] = target: CBFβ (Homo sapiens (Human), UniProt Q13951); assay: NMR chemical shift perturbation with CBFβ; type: binding; settings: for NMR with CBFβ + 250 uM compound, CSP G 112: residue G 112; for NMR with CBFβ + 250 uM compound, CSP K 98: residue K 98; for Precipitation in the NMR sample: 250 uM compound with CBFβ
CBFβ, sequence (Q13951 1-141, species assumed): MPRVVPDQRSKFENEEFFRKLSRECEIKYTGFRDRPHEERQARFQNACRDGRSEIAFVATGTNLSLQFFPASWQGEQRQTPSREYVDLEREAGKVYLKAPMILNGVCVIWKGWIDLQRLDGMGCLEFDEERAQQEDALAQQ
Excerpt: Validation of binding of a small molecule inhibitor to its protein target is an essential step in developing potent inhibitors. This can be readily achieved using either NMR spectroscopy or X-ray crystallography. In the case of X-ray crystallography, this is achieved by co-crystallization of the protein with the ligand and determination of the structure. In the case of NMR spectroscopy, the structure of a compound-protein complex can also be determined. In addition, chemical shift perturbations of the protein NMR spectrum (typically 2D ^15N—^1H HSQC or ^13C—^1H HSQC) in the presence of compounds can both confirm binding to the target and localize the binding site on a protein (Pellecchia, Sem et al. 2002; Salvatella and Giralt 2003). The latter method is a quick and efficient method to confirm binding to the protein and to determine the binding site when appropriate labeled samples are available and the resonance assignments are known. Such data can also be used to dock the small molecule to the protein. Because the structure of CBFβ has been solved by NMR (Huang, Peng et al. 1999), resonance assignments are available and we have employed this approach as an additional screen to ensure the validity of the inhibitors we are developing and to determine the binding site (see below).

[3] = tested on: ME-1 cells; assay: MTT viability assay, growth of ME-1 cells; type: cell-based, human; settings: MTT, FIG. 4A
Excerpt: (§1) We have tested several of the compounds we have synthesized for their effects on ME-1 cells, a leukemia cell line harboring the inv(16) (Yanagisawa, Horiuchi et al. 1991). […] AI-4-57 has also been tested against the Kasumi-1, Jurkat, and RS4; 11 leukemia cell lines (FIG. 4.B). […] We have also examined effects on apoptosis using flow cytometry to measure Annexin V/PI (propidium iodide) positivity. […] The selectivity for specific cell lines and the correlation of activity in the FRET assay with effects on inv(16) cells all support the hypothesis that the compounds are hitting the desired target.
The dimer with a 7 atom linker (AI-4-62) has been tested for effects on the growth of the ME-1 cell line (see FIG. 7), a leukemia cell line with the inv(16).

[4] = tested on: ME-1 cells; assay: Apoptosis by flow cytometry, Annexin V/PI positivity; type: cell-based, human; settings: FIG. 4C
Excerpt: as §1

[5] = ip injection; NCI Developmental Therapeutics website; cited from earlier work
[6] = tested on: NCI 60 cell lines; settings: for 79% of the cell lines; cited from earlier work

Row | Compound | IC50 FRET (CBFβ-SMMHC:RD, 20 nM both) ([1]; Table 1 monomers) | NMR with CBFβ + 250 uM compound, CSP G 112 ([2]; 250 uM compound) | NMR with CBFβ + 250 uM compound, CSP K 98 ([2]; 250 uM compound) | NMR with CBFβ + 250 uM compound, CSP G 112/K 98 (in words) ([2]; 250 uM compound) | also measured
1 | c1ccc(-c2nc3cc(N4CCCCC4)ccc3[nH]2)nc1 [AI-10-82] | Interference with assay | 0.032 ppm | 0.016 ppm |  | 
2 | c1ccc(-c2nc3cc(N4CCCC4)ccc3[nH]2)nc1 [AI-10-83] | Interference with assay | 0.087 ppm | 0.039 ppm |  | NMR with CBFβ + 250 uM compound, CSP L 97 ([2]; 250 uM compound, residue L 97): 0.034 ppm
3 | c1ccc(-c2nc3cc(-n4ccnc4)ccc3[nH]2)nc1 [AI-10-88] |  |  |  | No CSP | 
4 | FC(F)(F)Oc1cc(-c2cccnc2)c2[nH]c(-c3ccccn3)nc2c1 [AI-10-96] |  |  |  | No CSP | 
5 | FC(F)(F)Oc1cc2nc(-c3ccccn3)[nH]c2cc1N1CCCC1 [AI-10-97] | Interference with assay | 0.012 ppm | 0.006 ppm |  | 
6 | c1cc(-c2nc3cc(N4CCCC4)ccc3[nH]2)ncc1OCCOCCOc1ccc(-c2nc3cc(N4CCCC4)ccc3[nH]2)nc1 [AI-10-98] |  |  |  |  | IC50 FRET (CBFβ-SMMHC:RD, 20 nM both) ([1]; Table 2 dimers): Interference with assay
7 | COc1ccc(-c2nc3cc(N4CCCC4)ccc3[nH]2)nc1 [AI-10-101] | Interference with assay |  |  |  | 
8 | Cc1ccc2[nH]c(-c3ccccn3)nc2c1C [LD-1-23] |  |  |  | No CSP | Precipitation in the NMR sample [2]: some precipitation
9 | CCOc1ccc2[nH]c(-c3ccccn3)nc2c1 [LD-1-29] |  | 0.026 ppm | no change |  | Growth of ME-1 cells [3]: effective inhibition of growth; Apoptosis (AnnexinV/PI) ([4]; 40 μM): substantial apoptosis; Percentage of apoptotic cells (AnnexinV/PI) ([4]; 3 different concentrations): clear dose-dependent increase in the percentage of apoptotic cells
10 | Fc1ccc2[nH]c(-c3ccccn3)nc2c1 [LD-1-31] |  |  |  | No CSP | Precipitation in the NMR sample [2]: Strong precipitation
11 | COc1c(F)cc2[nH]c(-c3ccccn3)nc2c1F [LD-1-39] |  |  |  | No CSP | 
12 | COc1ccc(-c2nc3cc(OC)ccc3[nH]2)c(O)c1 [LD-1-73] |  |  |  |  | Δ110 [1]: Δ110 = 30%
13 | CN(C)c1ccc2[nH]c(-c3ccccn3)nc2c1 [LD-2-63] | Interference with assay | 0.037 ppm | 0.023 ppm |  | 
14 | COc1ccc2[nH]c(-c3cccc(C)n3)nc2c1 [LD-2-89] |  |  |  |  | Δ333 [1]: Δ333 = 17%
15 | COc1ccnc(-c2nc3cc(OC)ccc3[nH]2)c1 [LD-2-101] |  |  |  | No CSP | 
16 | COc1ccc2[nH]c(-c3ccccn3)nc2c1 [NCI-320656, reference compound] |  | 0.039 ppm | 0.026 ppm |  | Tolerated by mice [5]: up to 200 mg/kg/day; GI50 [6]: ≥ 100 µM
